The target in one test is wild-type HIV-1 protease (Human immunodeficiency virus type 1 group M subtype B, UniProt P04585). Description: Assay for inhibition of microbial expressed HIV protease. It counts as biochemical. The method, then:
Assay for Inhibition of Microbial Expressed HIV Protease
Inhibition studies of the reaction of the protease (which was expressed in Eschericia coli) with a peptide substrate [Val-Ser-Gln-Asn-(betanapthyl)Ala-Pro-Ile-Val]. The inhibitor is first preincubated with the enzyme in assay buffer (50 mM sodium acetate, pH 5.5, 100 mM NaCl, and 0.1% BSA) for 30 minutes at room temperature. Substrate is added to 440 micromolar in a total volume of 80 microliters containing 5 picomolar HIV-1 protease, and the reaction is incubated for 1 hour at 30° C. The reaction is quenched by addition of 120 microliters of 10% phosphoric acid, and product formation is determined after separation of product and substrate on a Vydac C18 column connected to an Alliance high performance liquid chromatography system (Waters Corporation). The extent of inhibition of the reaction is determined from the peak area of the products.

The test system of test [1] is acute HIV infection of T-lymphoid cells. Description: Assay for inhibition of HIV replication (spread assay). Conditions: read-out: Spread - IC95. Format: cell-based, HIV-1. The method, then:
• Assay for Inhibition of HIV Replication
Assays for the inhibition of acute HIV infection of T-lymphoid cells were conducted in accordance with Vacca, J. P. et al., Proc. Natl. Acad. Sci. USA 1994, 91: 4096.

The mark [2] stands for this setting: wild-type HIV-1 protease expressed in E. coli, peptide substrate, pH 5.5, read-out: Enzyme Inhibition - IC50.
Setting [3] is: Human immunodeficiency virus 1, T-lymphoid.

The values that follow come from patent US20100093811A1 (priority 2007, published 2010).

Counter-ions that a name gives are not always drawn. Like-named read-outs stand apart in the source and are kept apart here.

Broadly, the IC50 is the point on the concentration scale where inhibition reaches its midpoint. The term IC95 denotes the concentration needed for an effect of 95%. For the compound `COC(=O)N[C@H](C(=O)N[C@H](CCC[C@@H](CO)N(CCC(C)C)S(=O)(=O)c1ccc2ncsc2c1)C1CC1)C(c1ccccc1)c1ccccc1` [Example G3, N-{(1R,5S)-5-[(1,3-benzothiazol-6-ylsulfonyl)(3-metbylbutyl)amino]-1-cyclopropyl-6-hydroxyhexyl}-Nα-(methoxycarbonyl)-β-phenyl-L-phenylalaninamide], the IC50 on wild-type HIV-1 protease (setting [2]) was found to be 0.158 nM. Besides, the IC95 in test [1] (setting [3]) was determined as 0.044 µM.
In the same order, the values of `COC(=O)N[C@@H](Cc1ccccc1Cl)C(=O)N[C@H](CCC[C@@H](CO)N(CCC(C)C)S(=O)(=O)c1ccc2ncsc2c1)C1CC1` [Example E8, N-{(1R,5S)-5-[(1,3-benzothiazol-6-ylsulfonyl)(3-methylbutyl)amino]-1-cyclopropyl-6-hydroxyhexyl}-2-chloro-Nα-(methoxycarbonyl)-L-phenylalaninamide] are 1.4 nM and 0.195 µM.
As for `COC(=O)N[C@H](C(=O)N[C@@H](C)CCC[C@@H](CO)N(CCC(C)C)S(=O)(=O)c1ccc(N)cc1)C(c1ccccc1)c1ccccc1` [D1(R), N-{(1S,5S)-5-[[(4-aminohenyl)sulfonyl](3-methylbutyl)amino]-6-hydroxy-1-methylhexyl}-Nα-(methoxycarbonyl)-β-phenyl-L-phenylalaninamide], the IC50 at wild-type HIV-1 protease (setting [2]) amounted to 0.386 nM. For the same compound, the 95% effect concentration (IC95) in test [1] (inhibition of HIV-1 replication, 10% FBS) was 0.098 µM.
Regarding `CCCN([C@H](CO)CCC[C@H](C)NC(=O)[C@@H](NC(=O)OC)C(c1cccc(F)c1)c1cccc(F)c1)S(=O)(=O)c1ccc(N)cc1` [Example F17, N-{(1S,5S)-5-[[(4-aminophenyl)sulfonyl](propyl)amino]-6-hydroxy-1-methylhexyl}-3-fluoro-β-(3-fluorophenyl)-Nα-(methoxycarbonyl)-L-phenylalaninamide], at wild-type HIV-1 protease (setting [2]), the IC50 is 0.01 nM. For the same compound, the IC95 in test [1] (setting [3]) worked out at 0.018 µM.
The like results for `COC(=O)N[C@H](C(=O)N[C@H](CCC[C@@H](CO)N(CC(C)C)S(=O)(=O)c1ccc(CO)cc1)C(F)(F)F)C(c1ccccc1)c1ccccc1` [Example J30, N-[(1R,5S)-6-hydroxy-5-[{[4-(hydroxymethyl)phenyl]sulfonyl}(isobutyl)amino]-1-(trifluoromethyl)hexyl]-Nα-(methoxycarbonyl)-β-phenyl-L-phenylalaninamide] were, in that order, 0.01 nM and 0.021 µM.
With `CC[C@@H](CCC[C@@H](CO)N(CCC(C)C)S(=O)(=O)c1ccc(CO)cc1)NC(=O)[C@@H](N)C(c1ccccc1)c1ccccc1` [Example J31, N-{(1S,5S)-1-ethyl-6-hydroxy-5-[{[4-(hydroxymethyl)phenyl]sulfonyl}(3-methylbutyl)amino]hexyl}-β-phenyl-L-phenylalaninamide hydrochloride], at wild-type HIV-1 protease, the IC50 is 0.01 nM. Besides, the IC95 in test [1] (setting [3]) stood at 0.023 µM.
The like results for `CC[C@@H](CCC[C@@H](CO)N(C(C)C)S(=O)(=O)c1ccc(CO)cc1)NC(=O)[C@@H](NC)C(c1ccccc1)c1ccccc1` [Example J35, N-{(1S,5S)-1-ethyl-6-hydroxy-5-[{[4-(hydroxymethyl)phenyl]sulfonyl}(isopropyl)amino]hexyl}-Nα-methyl-β-phenyl-L-phenylalaninamide hydrochloride] were, in that order, 0.569 nM and 0.025 µM.
In the same order, the values of `COC(=O)N[C@H](C(=O)N[C@H](CCC[C@@H](CO)N(CC(C)C)S(=O)(=O)c1ccc(N)cc1)C(F)(F)F)C(c1ccccc1)c1ccccc1` [Example H5, N-[(1R,5S)-5-[[(4-aminophenyl)sulfonyl](isobutyl)amino]-6-hydroxy-1-(trifluoromethyl)hexyl]-Nα-(methoxycarbonyl)-β-phenyl-L-phenylalaninamide] are 0.02 nM and 0.007 µM.
For `CCCN([C@H](CO)CCC[C@H](CC)NC(=O)[C@H](Cc1ccccc1Cl)NC(=O)OC)S(=O)(=O)c1ccc(N)cc1` [Example F8, N-{(1S,5S)-5-[[(4-aminophenyl)sulfonyl](propyl)amino]-1-ethyl-6-hydroxyhexyl}-2-chloro-Nα-(methoxycarbonyl)-L-phenylalaninamide], the IC50 on wild-type HIV-1 protease (setting [2]) was 1.45 nM. Moreover, in test [1] (setting [3]), the IC95 was found to be 0.249 µM.
Regarding `COC(=O)N[C@@H](Cc1ccccc1Cl)C(=O)N[C@@H](C)CCC[C@@H](CO)N(CC(C)C)S(=O)(=O)c1ccc(N)cc1` [Example D8, N-{(1S,5S)-5-[[(4-aminophenyl)sulfonyl](isobutyl)amino]-6-hydroxy-1-methylhexyl}-2-chloro-Nα-(methoxycarbonyl)-L-phenylalaninamide], the IC50 at wild-type HIV-1 protease (setting [2]) was 0.327 nM. The 95% effect concentration (IC95) in test [1] (setting [3]) was 0.046 µM.
In the same order, the values of `COC(=O)N[C@@H](Cc1ccccc1Cl)C(=O)N[C@@H](C)CCC[C@@H](CO)N(C(C)C)S(=O)(=O)c1ccc(CO)cc1` [Example G10, 2-chloro-N-{(1S,5S)-6-hydroxy-5-[{[4-(hydroxymethyl)phenyl]sulfonyl}(isopropyl)amino]-1-methylhexyl}-Nα-(methoxycarbonyl)-L-phenylalaninamide] are 0.389 nM and 0.049 µM.
For `CCCN([C@H](CO)CCC[C@H](CC)NC(=O)[C@H](Cc1ccccc1Br)NC(=O)OC)S(=O)(=O)c1ccc(N)cc1` [Example F7, N-{(1S,5S)-5-[[(4-aminophenyl)sulfonyl](propyl)amino]-1-ethyl-6-hydroxyhexyl}-2-bromo-Nα-(methoxycarbonyl)-L-phenylalaninamide], the IC50 on wild-type HIV-1 protease (setting [2]) stood at 0.862 nM. In addition, the IC95 in test [1] (setting [3]) was determined as 0.251 µM.
The like results for `CC[C@@H](CCC[C@@H](CO)N(CCC(C)C)S(=O)(=O)c1ccc(CO)cc1)NC(=O)[C@@H](NC(=O)OC)C(c1ccccc1)c1ccccc1` [Example J1, N-{(1S,5S)-1-ethyl-6-hydroxy-5-[{[4-(hydroxymethyl)phenyl]sulfonyl}(3-methylbutyl)amino]hexyl}-Nα-(methoxycarbonyl)-β-phenyl-L-phenylalaninamide] were, in that order, 0.015 nM and 0.009 µM.
In the same order, the values of `COC(=O)N[C@H](C(=O)NC1(CCC[C@@H](CO)N(CCC(C)C)S(=O)(=O)c2ccc(N)cc2)CCCC1)C(c1ccccc1)c1ccccc1` [Example L1, N-(1-{(4S)-4-[[(4-aminophenyl)sulfonyl](3-methylbutyl)amino]-5-hydroxypentyl}cyclopentyl)-Nα-(methoxycarbonyl)-β-phenyl-L-phenylalaninamide] are 0.37 nM and 0.274 µM.
In the same order, the values of `CN[C@H](C(=O)N[C@H](CCC[C@@H](CO)N(CC(C)C)S(=O)(=O)c1ccc(CO)cc1)C1CC1)C(c1ccccc1)c1ccccc1` [Example J25, N-{(1R,55)-1-cyclopropyl-6-hydroxy-5-[{[4-(hydroxymethyl)phenyl]sulfonyl}(isobutyl)amino]hexyl}-Nα-methyl-β-phenyl-L-phenylalaninamide] are 0.08 nM and 0.017 µM.
In the case of `COC(=O)N[C@@H](Cc1ccccc1Cl)C(=O)N[C@H](CCC[C@@H](CO)N(CCC(C)C)S(=O)(=O)c1ccc(CO)cc1)C(C)C` [Example J26, 2-chloro-N-{(1R,5S)-6-hydroxy-5-[{[4-(hydroxymethyl)phenyl]sulfonyl}(3-methylbutyl)amino]-1-isopropylhexyl}-Nα-(methoxycarbonyl)-L-phenylalaninamide], at wild-type HIV-1 protease (setting [2]), the IC50 worked out at 1.33 nM. In addition, the IC95 in test [1] (setting [3]) was determined as 0.11 µM.
In the same order, the values of `CCCN([C@H](CO)CCCC(C)(C)NC(=O)[C@@H](NC(=O)OC)C(c1ccccc1)c1ccccc1)S(=O)(=O)c1ccc(N)cc1` [Example L6, N-{(5S)-5-[[(4-aminophenyl)sulfonyl](propyl)amino]-6-hydroxy-1,1-dimethylhexyl}-Nα-(methoxycarbonyl)-β-phenyl-L-phenylalaninamide] are 0.095 nM and 0.196 µM.
Regarding `CC[C@@H](CCC[C@@H](CO)N(C(C)C)S(=O)(=O)c1ccc(C(C)=O)cc1)NC(=O)[C@@H](NC(=O)OC)C(c1ccccc1)c1ccccc1` [Example K3, N-{(1S,5S)-5-[[(4-acetylphenyl)sulfonyl](isopropyl)amino]-1-ethyl-6-hydroxyhexyl}-Nα-(methoxycarbonyl)-β-phenyl-L-phenylalaninamide], on wild-type HIV-1 protease (setting [2]), the 50% inhibitory concentration (IC50) was 0.929 nM. In addition, the IC95 in test [1] (setting [3]) is 0.112 µM.
`COC(=O)NC(C(=O)N[C@@H](C)CCC[C@@H](CO)N(C(C)C)S(=O)(=O)c1ccc(CO)cc1)C(c1cccc(F)c1)c1cccc(F)c1` (stereo partly drawn) [Example J46, 3-fluoro-β-(3-fluorophenyl)-N-{(1S,5S)-6-hydroxy-5-[{[4-(hydroxymethyl)phenyl]sulfonyl}(isopropyl)amino]-1-methylhexyl}-Nα-(methoxycarbonyl)phenylalaninamide]: the IC50 on wild-type HIV-1 protease (setting [2]) stood at 0.01 nM. Also, the IC95 in test [1] (setting [3]) turned out to be 0.018 µM.
In the same order, the values of `COC(=O)N[C@H](C(=O)N[C@H](CCC[C@@H](CO)N(C)S(=O)(=O)c1ccc(N)cc1)C1CC1)C(c1ccccc1)c1ccccc1` [Example I9, N-{(1R,5S)-5-[[(4-aminophenyl)sulfonyl](methyl)amino]-1-cyclopropyl-6-hydroxyhexyl}-Nα-(methoxycarbonyl)-β-phenyl-L-phenylalaninamide] are 3.2 nM and 0.323 µM.
